The NIST ThermoML archive (doi:10.1021/je5003225)

What was measured:
[1] = refractive index (Na D-line) (dimensionless); conditions: 298.15 K; 101.33 kPa; Liquid; Standard Abbe refractometry
[2] = Liquid; Ebulliometric method (Recirculating still)
[3] = xn = mol fraction of the nth substance listed; conditions: 298.15 K, 101 kPa, Liquid, Vibrating tube method

CCC(C)O (centres undefined) [butan-2-ol]
Conditions	Normal boiling temperature [°C]	refractive index
[1]	–	1.3949
[2]	99.61	–

CCC(C)O (centres undefined) [butan-2-ol] + CCOC(C)=O
[3]
Conditions	mass density [kg/m3]
x2 = 0	802.5
x2 = 0.0415	805.6
x2 = 0.0917	809.5
x2 = 0.1482	813.9
x2 = 0.208	818.7
x2 = 0.257	822.8
x2 = 0.2963	826.2
x2 = 0.3488	830.7
x2 = 0.3914	834.5
x2 = 0.4397	838.9
x2 = 0.4905	843.5
x2 = 0.5313	847.3
x2 = 0.6	853.8
x2 = 0.6539	859
x2 = 0.7031	863.8
x2 = 0.741	867.5
x2 = 0.7953	873
x2 = 0.8528	878.9
x2 = 0.8891	882.6
x2 = 0.9484	889

CCC(C)O (centres undefined) [butan-2-ol] + COC(C)=O
Conditions	mass density [kg/m3]
[3], x2 = 0	802.5

CCOC(C)=O [ethyl acetate] + CCC(C)O
Conditions	mass density [kg/m3]
[3], x1 = 1	894.5

COC(C)=O [methyl ethanoate] + CCC(C)O
[3]
Conditions	mass density [kg/m3]
x1 = 0.058	807.2
x1 = 0.1719	817.3
x1 = 0.2756	827.5
x1 = 0.3391	834.2
x1 = 0.4544	847.3
x1 = 0.4714	849.3
x1 = 0.5051	853.4
x1 = 0.5458	858.5
x1 = 0.593	864.5
x1 = 0.6822	876.6
x1 = 0.799	893.7
x1 = 0.8576	902.9
x1 = 0.8788	906.3
x1 = 0.9586	919.9
x1 = 1	927.3
